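Test compounds were applied to cells in 96-well plates for 48 hours at 5 doses. The concentration for 50% growth inhibition is given as GI50. TGI is the concentration that stops growth completely.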 A value given as a limit tells only on which side of the number the result lay.

Test systems include OVCAR-8 ovarian; MOLT-4 leukemia; UACC-257 melanoma; SNB-75 CNS; 786-0 renal; SF-295 CNS; NCI-H522 lung; MDA-MB-435; COLO 205 colon; SR leukemia.
Common to all, as to assay: growth of human tumour cells (NCI), 48 h

Consider `O=C1c2ccccc2C(=O)c2c1c(NCCNCCO)c1cc[nH]c1c2NCCNCCO`, for which the GI50 in the assay on OVCAR-8 ovarian was 2.42 µM; in the assay on MOLT-4 leukemia, 1.28 µM; in the assay on UACC-257 melanoma, 7.06 µM; with SNB-75 CNS it was 9.77 µM; with 786-0 renal, 3.87 µM; in the assay on SF-295 CNS, 4.37 µM. Besides, the GI50 in the assay on NCI-H522 lung was 2.32 µM; with MDA-MB-435 it was 3.03 µM; in the assay on COLO 205 colon, 2.48 µM. In addition, the TGI with OVCAR-8 ovarian was 40.5 µM; with UACC-257 melanoma it was 29.9 µM; in the assay on SNB-75 CNS, over 100 µM; in the assay on 786-0 renal, over 36.7 µM; in the assay on SF-295 CNS, 43 µM; with NCI-H522 lung, over 35.8 µM. Also, the figures for the TGI with MDA-MB-435 and in the assay on COLO 205 colon were 11.9 µM and over 33.3 µM, respectively.

Turning to `O=c1c2ccccc2c(C=NCCNCCO)c2oc3ccccc3n12`, the GI50 is 4.88 µM with OVCAR-8 ovarian; 1.73 µM in the assay on MOLT-4 leukemia; 2.48 µM in the assay with SR leukemia; 12.1 µM with UACC-257 melanoma; 12.4 µM in the assay on 786-0 renal; 3.72 µM with SF-295 CNS. The GI50 with NCI-H522 lung is 16.7 µM; in the assay with MDA-MB-435 it was 12.3 µM; in the assay on COLO 205 colon, 3.27 µM. The TGI was determined as 19.7 µM with OVCAR-8 ovarian; 11.7 µM in the assay on MOLT-4 leukemia; 6.62 µM in the assay with SR leukemia; 26.7 µM with UACC-257 melanoma; 24.9 µM in the assay with 786-0 renal; 13.6 µM in the assay on SF-295 CNS. Also, the results for the TGI with NCI-H522 lung, in the assay with MDA-MB-435 and in the assay with COLO 205 colon were 37.7 µM, 24.7 µM and 15.8 µM, respectively.

As to `COc1ccc(CNCCCN2C(=O)c3ccc4c5c(ccc(c35)C2=O)C(=O)N(CCCNCCCCNCCCN)C4=O)c(OC)c1OC`, the GI50 is 0.618 µM in the assay with OVCAR-8 ovarian; 1.53 µM with MOLT-4 leukemia; 1.31 µM with SR leukemia; 0.334 µM with UACC-257 melanoma; 1.27 µM with SNB-75 CNS; 3.53 µM in the assay on 786-0 renal. In addition, the GI50 with SF-295 CNS is 2.35 µM; with MDA-MB-435, 1.17 µM; in the assay on COLO 205 colon, 0.194 µM. Besides, the TGI came to 8.2 µM in the assay on OVCAR-8 ovarian; 15.6 µM in the assay with MOLT-4 leukemia; 17.4 µM with SR leukemia; 1.38 µM in the assay on UACC-257 melanoma; 3.63 µM with SNB-75 CNS; 22.5 µM in the assay on 786-0 renal. The TGI in the assay on SF-295 CNS amounted to 15.9 µM; with MDA-MB-435, 6.57 µM; in the assay with COLO 205 colon it was 0.391 µM.

Regarding `COc1cccc(NC(=O)c2ccc(C(F)(F)F)nc2Nc2ccc(Cl)cc2C)c1`, the GI50 in the assay on OVCAR-8 ovarian was 11.8 µM; with MOLT-4 leukemia, 10.2 µM; in the assay with UACC-257 melanoma it was 13.4 µM; with SNB-75 CNS it was 12.3 µM; with 786-0 renal, 14.7 µM; in the assay with SF-295 CNS, 12.4 µM. In addition, the values for the GI50 in the assay with NCI-H522 lung, in the assay with MDA-MB-435 and in the assay with COLO 205 colon were 1.28 µM, 12.1 µM and 10.4 µM, respectively. In addition, the TGI in the assay with OVCAR-8 ovarian amounted to 24.1 µM; in the assay with MOLT-4 leukemia it was 51 µM; in the assay on UACC-257 melanoma, 26.2 µM; in the assay on SNB-75 CNS, 25.5 µM; in the assay on 786-0 renal, 31.4 µM; in the assay on SF-295 CNS, 28.6 µM. Further, the TGI turned out to be 7.18 µM with NCI-H522 lung, 27.2 µM in the assay on MDA-MB-435 and 25.8 µM with COLO 205 colon.

`CC(C)(C)OC(=O)N(CCCn1c2c(c3ccccc3c1=O)C(=O)c1ccccc1-2)CCN(CCCn1c2c(c3ccccc3c1=O)C(=O)c1ccccc1-2)C(=O)OC(C)(C)C`: the GI50 was 24.6 µM in the assay on OVCAR-8 ovarian; 4 µM with MOLT-4 leukemia; 2.26 µM with SR leukemia; over 50 µM in the assay on UACC-257 melanoma; 13.6 µM in the assay with 786-0 renal; 14 µM in the assay on SF-295 CNS. Besides, the values for the GI50 with NCI-H522 lung, in the assay with MDA-MB-435 and in the assay with COLO 205 colon were 21.3 µM, over 50 µM and over 50 µM, respectively. Further, the TGI in the assay with OVCAR-8 ovarian was over 50 µM; in the assay with MOLT-4 leukemia, 16.1 µM; in the assay with SR leukemia, 13.7 µM; with UACC-257 melanoma, over 50 µM; with 786-0 renal it was over 50 µM; with SF-295 CNS, over 50 µM. For the same compound, the TGI in the assay with NCI-H522 lung, in the assay on MDA-MB-435 and with COLO 205 colon was over 50 µM in each case.

In the case of `CC(=O)c1ccc(NCn2nc(-c3ccccc3O)oc2=S)cc1`, the GI50 with OVCAR-8 ovarian is over 100 µM; in the assay on MOLT-4 leukemia it was 0.88 µM; in the assay on UACC-257 melanoma, over 100 µM; with 786-0 renal, 74.1 µM; in the assay on SF-295 CNS, over 100 µM; in the assay on NCI-H522 lung it was over 100 µM. The GI50 in the assay with MDA-MB-435 is over 100 µM; with COLO 205 colon, 43.4 µM. Also, the TGI in the assay with OVCAR-8 ovarian, in the assay on MOLT-4 leukemia, with UACC-257 melanoma, in the assay with 786-0 renal, in the assay with SF-295 CNS and in the assay on NCI-H522 lung was over 100 µM throughout. Besides, the TGI in the assay on MDA-MB-435 and in the assay with COLO 205 colon was over 100 µM throughout.

In the case of `CCCC(=O)C(CC)/C(CCC(=O)N(Cc1ccccc1)Cc1ccccc1)=N/NC(=O)C[N+](C)(C)C` (stereo not drawn), the TGI in the assay with OVCAR-8 ovarian, with MOLT-4 leukemia, in the assay on SR leukemia, in the assay on UACC-257 melanoma, in the assay with SNB-75 CNS and in the assay on 786-0 renal was over 100 µM in each case. The TGI in the assay with SF-295 CNS, in the assay on NCI-H522 lung and in the assay on COLO 205 colon was over 100 µM each time.

On to `CCOc1ccccc1N=C(NC(=O)CC)SC`, for which the GI50 in the assay on OVCAR-8 ovarian was over 10 µM; in the assay on MOLT-4 leukemia, over 10 µM; in the assay with SR leukemia, over 100 µM; in the assay on UACC-257 melanoma, over 100 µM; in the assay with SNB-75 CNS it was over 10 µM; with 786-0 renal, over 100 µM. Further, the GI50 with SF-295 CNS and in the assay with NCI-H522 lung was over 100 µM in each case. Also, the TGI in the assay on OVCAR-8 ovarian, in the assay on MOLT-4 leukemia, in the assay on SR leukemia, in the assay with UACC-257 melanoma, with SNB-75 CNS and in the assay with 786-0 renal was over 100 µM throughout. The figures for the TGI in the assay with SF-295 CNS, in the assay with NCI-H522 lung and with COLO 205 colon were over 100 µM, over 100 µM and over 10 µM, respectively.

On to `CNC1=C(Br)C(=O)C2=C(C1=O)C1C3=C(C(=O)C=CC3=O)C2c2ccccc21` (stereo not drawn), for which the GI50 with OVCAR-8 ovarian is 2.99 µM; in the assay with MOLT-4 leukemia, 0.473 µM; in the assay on UACC-257 melanoma, 12.7 µM; with SNB-75 CNS, 3.88 µM; in the assay with 786-0 renal, 2.12 µM; with SF-295 CNS, 19.2 µM. In addition, the values for the GI50 in the assay on NCI-H522 lung, in the assay on MDA-MB-435 and with COLO 205 colon were 6.7 µM, 6.59 µM and 4.07 µM, respectively. Also, the TGI with OVCAR-8 ovarian is 8.93 µM; in the assay on UACC-257 melanoma, over 100 µM; with SNB-75 CNS, 24.5 µM; in the assay on 786-0 renal, 4.57 µM; in the assay with SF-295 CNS it was 45.8 µM; with NCI-H522 lung, over 22.4 µM. The values for the TGI in the assay with MDA-MB-435 and in the assay with COLO 205 colon were 14.7 µM and 35.4 µM, respectively.

The values above are taken from PubChem BioAssay (NCI).
